Source: patent US20240100020A1, “MEDICINE FOR RELIEVING OR E[…] […] AND PREPARATION METHOD THEREFOR” (Shenzhen ScienCare Pharmaceutical Co., Ltd., priority 2020, published 2024)

Test system: Rats
Experiment: Addiction of tramadol and clonidine tablets and compound tablets (withdrawal after 30 days of administration)
Conditions: for Number of jumps and body weight loss compared with the blank control group (in words): after 30 consecutive days of administration; for Body weight loss / Number of jumps: within one week after withdrawal
Experimental: Rats weighing approximately 150 g, half male and half female, were taken and randomly divided into 10 groups, that is, a blank control group, a morphine group, a tramadol group, a clonidine group, and compound tablet groups 1 to 6 (the rats in the compound tablet group 1 were administered with the compound tablets of Example 1, the rats in the compound tablet group 2 were administered with the compound tablets of Example 2, the rats in the compound tablet group 3 were administered with the compound tablets of Example 3, the rats in the compound tablet group 4 were administered with the compound tablets of Example 6, the rats in the compound tablet group 5 were administered with the compound tablets of Example 7, and the rats in the compound tablet group 6 were administered with the compound tablets of Example 10).
The rats were administered 3 times a day for 30 days. Administration methods were as follows: (1) the blank control group: PO (oral administration); and 0 mg/kg/time; (2) the morphine group: ip (intraperitoneal injection); and 5 mg/kg/time in week 1, 10 mg/kg/time in week 2, 20 mg/kg/time in week 3, and 30 mg/kg/time from day 22 to day 30; (3) the tramadol group: PO; and 25 mg/kg/time in week 1, 50 mg/kg/time in week 2, 100 mg/kg/time in week 3, and 200 mg/kg/time from day 22 to day 30; (4) the clonidine group: PO; and 0.075 mg/kg/time in week 1, 0.15 mg/kg/time in week 2, 0.3 mg/kg/time in week 3, and 0.6 mg/kg/time from day 22 to day 30; (5) the compound tablet groups: PO; and 25 mg/kg/time in week 1, 50 mg/kg/time in week 2, 100 mg/kg/time in week 3, and 200 mg/kg/time from day 22 to day 30. Withdrawal symptoms and body weight changes within one week after withdrawal of the rats in each group were observed.

[1] = ip 3 times a day for 30 days, 5/10/20/30 mg/kg/time rising by week
[2] = PO 3 times a day for 30 days, 25/50/100/200 mg/kg/time rising by week

| Structure (SMILES) | Number of jumps and body weight loss compared with the blank control group (in words) | Body weight loss [1] [g] | Number of jumps [1] | Body weight loss [2] [g] | Number of jumps [2] |
| --- | --- | --- | --- | --- | --- |
| CN1CC[C@]23c4c5ccc(O)c4O[C@H]2[C@@H](O)C=C[C@H]3[C@H]1C5 [Morphine group, morphine] | extremely significant differences | 10.1 ± 2.1 | 20.1 ± 2.1 |  |  |
| COc1cccc(C2(O)CCCCC2CN(C)C)c1 (stereo not drawn) [Tramadol group, tramadol] | extremely significant differences |  |  | 9.6 ± 2.3 | 17.3 ± 1.9 |
